Patent publication US20180318383A1, “PEPTIDE HAVING NEURONAL LOSS PREVENTION AND REGENERATION EFFECTS, AND COMPOSITION CONTAINING SAME” (GEMVAX & KAEL CO., LTD., priority 2015, published 2018)
Where no end group is shown, it is not given here.

What was measured:
NSCs [1] = experiment: Cell viability of NSCs (CCK-8, MTT, LDH); assay type: cell-based, rat; settings: NSCs, Aβ25-35 alone 0, 2.5, 5, 10, 20, 40 μM, 48 hours; CCK-8, MTT, LDH
Method: NSCs were isolated from the brain of a rat embryo, cultured and developed. The NSC culture was performed in the same manner as to be described below. Briefly describing, a rat embryo was obtained on day 13 of the embryonic period, and the brain was quickly removed and placed in a petri dish containing cold phosphate-buffered physiological saline (Hank's balanced salt solution; HBSS).
Single cells were isolated from the cerebral cortex, the lateral ganglion eminence, and the embryonic midbrain. These cells were put into a dish pre-treated with L-ornithine and fibronectin, containing calcium and magnesium-free phosphate-buffered physiological saline (PBS) at a density of 20,000 cells/cm^2. In addition, the cells were cultured in an N2 medium (DMEM F/12, […] insulin, 100 mg/L transferrin, 30 nM selenite, […], 20 nM progesterone, 0.2 mM ascorbic acid, […], 8.6 mM D(+) glucose, and […]). The culture was maintained in humidified and 5% CO2 conditions for 4 to 6 days at 37° C.
NSCs were divided into 6 samples, and each sample was treated with […] Aβ25-30 oligomers for 48 hours to identify a suitable concentration. […] Briefly, Aβ25-30 was dissolved in hexafluoroisopropanol to reach a concentration of 1 mM. In addition, the prepared solution was dispensed using a sterilized ultramicrocentrifuge tube. […]
To identify the PEP1 effect in NSCs, PEP1 was treated at various concentrations of 0, 1, 10, 50, 100, and 200 μM for 48 hours. […] The plate was gently washed with PBS several times, and cell viability was measured using a cell counting kit-8 (CCK-8), MTT and lactate dehydrogenase (LDH).
CCK-8 was used as a method for counting living cells by bonding 2-[2-methoxy-4-nitrophenyl]-3-[4-nitrophenyl]-5-[2,4-disulfophenyl]-2H-tetrazolium, monosodium salt (WST-8) with 1-methoxyphenazinium methylsulfate (PMS). […] Cell viability was evaluated by measuring absorbance at 450 nm. […] Cell viability was evaluated by measuring absorbance at 490 nm and reference absorbance at 690 nm. […]

NSCs [2] = experiment: NSC proliferation (BrdU and CFU assays); assay type: cell-based, rat; settings: NSCs, Aβ25-35 alone 0-40 μM, 48 hours; BrdU and CFU
Method: NSCs were treated with different concentrations of PEP1 and 20 μM Aβ25-30 for 48 hours. Afterward, NSCs were cultured in bromodeoxyuridine (BrdU)-labeled media for 5 hours and observed using a kit. Cell division was evaluated by measuring absorbance at 370 nm and reference absorbance at 492 nm. All results were normalized based on a cell-free well.
A CFU assay was carried out by the following method. Briefly, 0.25×10^5 NSCs were plated in a 6-well plate, and treated with 20 μM Aβ25-30 and then with PEP1 at 1, 10 or 50 μM for 48 hours. The cells were washed with DPBS, and then the medium was exchanged with a fresh cell culture medium. Fourteen days later, the cells were washed again with DPBS, and stained with 0.5% crystal violet dissolved in methanol for 30 minutes at room temperature. Following staining, the plate was washed with DPBS and then dried. The number of colonies was observed using a stereoscopic microscope, and among these colonies, those smaller than 2 mm or faintly stained were removed.

[3] = Cell-free ROS production (DHBA level by HPLC); settings: 20 μM Aβ25-35 and PEP1 0, 1, 10, 50 μM
Method: To investigate how Aβ25-30 and PEP1 influenced ROS, a DHBA level was measured and observed by a cell-free method. This method was carried out by observing the DHBA level in a tube containing 20 μM Aβ25-30 and each concentration of PEP1 (0, 1, 10 or 50 μM) through HPLC.

PI3K pathway = experiment: NSC survival after PI3K inhibitor LY294002 pre-treatment; assay type: cell-based, rat; settings: 10 μM LY294002 pre-treatment, then 20 μM Aβ25-35 and 10 μM PEP1 for 48 hours
Method: To identify the role of the PI3K/AKT signaling system in the PEP1 mechanism, NSCs were treated with a PI3K inhibitor LY294002 for 1 hour before treatment of 50 μM PEP1 and 20 μM Aβ25-30. NSCs were divided into four groups as follows: control group (Group 1), group treated with 20 μM Aβ25-35 for 48 hours (Group 2), group treated with 20 μM Aβ25-35, as well as 50 μM PEP1, for 48 hours (Group 3), and group treated with 10 μM LY294002 and 20 μM Aβ25-35, as well as 50 μM PEP1, for 48 hours (Group 4). To investigate a PEP1 effect on nerve protection via a PI3K pathway induced by Aβ25-35 toxicity, NSCs were divided into four groups: control group (Group 1), group treated with 20 μM Aβ25-35 for 48 hours (Group 2), group treated with 20 μM Aβ25-35 and 10 μM PEP1 for 48 hours (Group 3), and group treated with 10 μM LY294002 for […], and then treated with 20 μM Aβ25-35 10 μM PEP1 for 48 hours (Group 4).

Compound | cell survival ability (NSCs [1]) | proliferation (NSCs [2]) | ROS production under a cell-free condition [3] | survival ability of NSCs degraded, Group 4 compared to Group 3 (PI3K pathway)
Aβ25-35: β-Amyloid 25-35 oligomers used to induce neurotoxicity in NSCs (GSNKGAIIGLM; also: used as oligomers; UniProt P05067 696-706, looked up, fragment) [reference compound] | significantly reduced in a concentration-dependent method | significantly reduced in a concentration-dependent method | did not exhibit a significant influence | 
O=c1cc(N2CCOCC2)oc2c(-c3ccccc3)cccc12 [LY294002] |  |  |  | approximately 16%
